What was measured:
[1] = rats; WO 02/087569; cited from earlier work
[2] = rats; WO 02/087569; cited from earlier work; remark: listed apart in the source
[3] = biological target: T1, FAAH (Homo sapiens, UniProt O00519); experiment: Assay Method 1: FAAH assay, 3H-anandamide hydrolysis in cell homogenate; format: biochemical; design: expressed in transfected cells; settings: T84 or transfected SK-N-MC cell homogenate, 80 nM 3H-AEA, 1 h rt, > = solubility limit or highest concentration tested
T1 sequence (O00519 1-579): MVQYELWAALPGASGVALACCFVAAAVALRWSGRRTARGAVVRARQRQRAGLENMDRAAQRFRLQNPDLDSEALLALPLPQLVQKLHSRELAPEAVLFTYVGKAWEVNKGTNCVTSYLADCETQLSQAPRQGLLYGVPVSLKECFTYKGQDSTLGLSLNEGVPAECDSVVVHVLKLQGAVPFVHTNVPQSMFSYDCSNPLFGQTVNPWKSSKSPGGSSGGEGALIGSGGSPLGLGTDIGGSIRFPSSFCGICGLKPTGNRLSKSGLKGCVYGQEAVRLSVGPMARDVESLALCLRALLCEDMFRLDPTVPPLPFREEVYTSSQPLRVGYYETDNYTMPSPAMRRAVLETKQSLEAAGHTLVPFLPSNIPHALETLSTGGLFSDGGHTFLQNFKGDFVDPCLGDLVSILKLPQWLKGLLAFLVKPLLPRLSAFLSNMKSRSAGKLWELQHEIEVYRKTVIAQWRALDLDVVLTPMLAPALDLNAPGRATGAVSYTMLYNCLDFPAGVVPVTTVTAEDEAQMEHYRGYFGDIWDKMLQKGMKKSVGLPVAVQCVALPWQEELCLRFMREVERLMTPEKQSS
How it was run: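 Homogenate of SK-N-MC cells stably transfected with human FAAH, incubated with compound and 80 nM final ³H-anandamide for 1 h at rt. Released ³H-ethanolamine separated from substrate on activated charcoal and counted by scintillation. ">" values reflect solubility limit or top concentration tested.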

[4] = biological target: T2, Rat FAAH (Rattus norvegicus, UniProt P97612); experiment: Assay Method 2: FAAH assay, 3H-anandamide hydrolysis in cell homogenate; format: biochemical; settings: transfected SK-N-MC cell homogenate, 80 nM 3H-AEA, 1 h rt, > = solubility limit or highest concentration tested
T2 construct: expressed in transfected cells
T2 sequence (P97612 1-579): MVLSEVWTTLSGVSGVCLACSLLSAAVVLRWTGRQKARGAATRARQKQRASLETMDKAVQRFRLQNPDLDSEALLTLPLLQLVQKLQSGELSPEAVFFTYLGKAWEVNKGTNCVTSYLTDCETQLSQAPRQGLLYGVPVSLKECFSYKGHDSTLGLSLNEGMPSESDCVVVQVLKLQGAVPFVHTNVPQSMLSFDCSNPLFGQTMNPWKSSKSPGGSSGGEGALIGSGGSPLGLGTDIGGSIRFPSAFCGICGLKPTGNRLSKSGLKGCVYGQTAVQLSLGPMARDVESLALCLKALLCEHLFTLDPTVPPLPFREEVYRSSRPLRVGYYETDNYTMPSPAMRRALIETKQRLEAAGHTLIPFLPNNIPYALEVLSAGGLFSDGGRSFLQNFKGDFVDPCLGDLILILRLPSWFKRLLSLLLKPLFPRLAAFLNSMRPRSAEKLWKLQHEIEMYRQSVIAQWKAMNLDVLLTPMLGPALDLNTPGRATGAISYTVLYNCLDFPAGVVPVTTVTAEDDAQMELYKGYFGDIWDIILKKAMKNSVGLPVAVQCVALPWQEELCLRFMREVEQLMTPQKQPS
How it was run: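 Homogenate of SK-N-MC cells stably transfected with rat FAAH cDNA (G418-selected clones) incubated with compound and 80 nM final [3H]-anandamide for 1 h. Released [3H]-ethanolamine separated on activated charcoal filters by centrifugation and counted by scintillation. ">" values mark solubility limit or top concentration tested.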

[5] = biological target: T1, FAAH; settings: WO 04/033652; cited from earlier work
[6] = rats; WO 04/033652; cited from earlier work
[7] = rats; WO 04/033652; cited from earlier work; remark: listed apart in the source

Structure (SMILES) | IC50 [3] | IC50 [4] | further results
Cc1nc(-c2ccccc2)c(-c2ccccc2)n1CCCCCCNC(=O)Oc1ccccc1F [BMS-1] |  |  | analgesic effect in Hargraves test of acute thermal nociception [1]: analgesic effect; analgesic effect in Chung spinal nerve ligation model of neuropathic pain [2]: analgesic effect
COc1ccc(CN2CCC(C(=O)c3ncco3)CC2)cc1 [Example 61, [1-(4-Methoxy-benzyl)-piperidin-4-yl]-oxazol-2-yl-methanone] | 208 nM | 1200 nM | 
COc1cccc(CN2CCC(C(=O)c3ncco3)CC2)c1 [Example 62, [1-(3-Methoxy-benzyl)-piperidin-4-yl]-oxazol-2-yl-methanone] | 244 nM | 1300 nM | 
Cc1ccc(CN2CCC(C(=O)c3ncco3)CC2)cc1 [Example 64, [1-(4-Methyl-benzyl)-piperidin-4-yl]-oxazol-2-yl-methanone] | 112 nM | 484 nM | 
Cc1cccc(CN2CCC(C(=O)c3ncco3)CC2)c1 [Example 65, [1-(3-Methyl-benzyl)-piperidin-4-yl]-oxazol-2-yl-methanone] | 250 nM | 970 nM | 
Cc1ccccc1CN1CCC(C(=O)c2ncco2)CC1 [Example 66, [1-(2-Methyl-benzyl)-piperidin-4-yl]-oxazol-2-yl-methanone] | 175 nM | 600 nM | 
O=C(c1ncco1)C1CCN(Cc2cc3cc4c(cc3nc2Cl)OCO4)CC1 [Example 67, [1-(6-Chloro-[1,3]dioxolo[4,5-g]quinolin-7-ylmethyl)-piperidin-4-yl]-oxazol-2-yl-methanone] | 745 nM | > 10000 nM | 
COc1ccc2cc(CN3CCC(C(=O)c4ncco4)CC3)c(Cl)nc2c1 [Example 68, [1-(2-Chloro-7-methoxy-quinolin-3-ylmethyl)-piperidin-4-yl]-oxazol-2-yl-methanone] | 294 nM | 511 nM | 
Cc1ccc2cc(CN3CCC(C(=O)c4ncco4)CC3)c(Cl)nc2c1 [Example 69, [1-(2-Chloro-7-methyl-quinolin-3-ylmethyl)-piperidin-4-yl]-oxazol-2-yl-methanone] | 585 nM | 470 nM | 
O=C(c1ncco1)C1CCN(Cc2cc3ccc(Cl)cc3nc2Cl)CC1 [Example 70, [1-(2,7-Dichloro-quinolin-3-ylmethyl)-piperidin-4-yl]-oxazol-2-yl-methanone] | 500 nM | 290 nM | 
O=C(c1ncco1)C1CCN(Cc2ccc3c(c2)OC(F)(F)O3)CC1 [Example 71, [1-(2,2-Difluoro-benzo[1,3]dioxol-5-ylmethyl)-piperidin-4-yl]-oxazol-2-yl-methanone] | 27 nM | 24 nM | 
CN(C)c1nc2ccccc2cc1CN1CCC(C(=O)c2ncco2)CC1 [Example 72, [1-(2-Dimethylamino-quinolin-3-ylmethyl)-piperidin-4-yl]-oxazol-2-yl-methanone] | 46 nM | 38 nM | 
Cc1cccc2cc(CN3CCC(C(=O)c4ncco4)CC3)c(Cl)nc12 [Example 73, [1-(2-Chloro-8-methyl-quinolin-3-ylmethyl)-piperidin-4-yl]-oxazol-2-yl-methanone] | 2 nM | 4 nM | 
Cc1ccc2nc(Cl)c(CN3CCC(C(=O)c4ncco4)CC3)cc2c1 [Example 74, [1-(2-Chloro-6-methyl-quinolin-3-ylmethyl)-piperidin-4-yl]-oxazol-2-yl-methanone] | 17 nM | 87 nM | 
O=C(c1ncco1)C1CCN(Cc2ccc3cccc(Cl)c3n2)CC1 [Example 75, [1-(8-Chloro-quinolin-2-ylmethyl)-piperidin-4-yl]-oxazol-2-yl-methanone] | 4 nM | 4 nM | 
O=C(c1ncco1)C1CCN(Cc2ccc3ccc(Cl)cc3n2)CC1 [Example 76, [1-(7-Chloro-quinolin-2-ylmethyl)-piperidin-4-yl]-oxazol-2-yl-methanone] | 3 nM | 8 nM | 

Structure (SMILES) | IC50 [3] | IC50 [4] | further results
O=C(c1ncco1)C1CCN(Cc2ccc3cc(Cl)ccc3n2)CC1 [Example 77, [1-(6-Chloro-quinolin-2-ylmethyl)-piperidin-4-yl]-oxazol-2-yl-methanone] | 7 nM | 22 nM | 
O=C(c1ncco1)C1CCN(Cc2cnc3ccccc3n2)CC1 [Example 78, Oxazol-2-yl-(1-quinoxalin-2-ylmethyl-piperidin-4-yl)-methanone] | 30 nM | 90 nM | 
O=C(c1ncco1)C1CCN(Cc2ccc3cccc(O)c3n2)CC1 [Example 79, [1-(8-Hydroxy-quinolin-2-ylmethyl)-piperidin-4-yl]-oxazol-2-yl-methanone] | 12 nM | 40 nM | 
O=C(c1ncco1)C1CCN(Cc2nc3ccccc3cc2Cl)CC1 [Example 80, [1-(3-Chloro-quinolin-2-ylmethyl)-piperidin-4-yl]-oxazol-2-yl-methanone] | 16 nM | 70 nM | 
COc1ccc(CN2CCC(C(=O)c3ncco3)CC2)cn1 [Example 81, [1-(6-Methoxy-pyridin-3-ylmethyl)-piperidin-4-yl]-oxazol-2-yl-methanone] | 315 nM | 1700 nM | 
O=C(c1ncco1)C1CCN(Cc2ccc(Cl)nc2)CC1 [Example 82, [1-(6-Chloro-pyridin-3-ylmethyl)-piperidin-4-yl]-oxazol-2-yl-methanone] | 125 nM | 650 nM | 
Cc1cccc(CN2CCC(C(=O)c3ncco3)CC2)n1 [Example 83, [1-(6-Methyl-pyridin-2-ylmethyl)-piperidin-4-yl]-oxazol-2-yl-methanone] | 640 nM | 3000 nM | 
O=C(c1ncco1)C1CCN(Cc2ccc3ccccc3n2)CC1 [Example 84, Oxazol-2-yl-(1-quinolin-2-ylmethyl-piperidin-4-yl)-methanone] | 13 nM | 23 nM | 
O=C(c1ncco1)C1CCN(Cc2cnc3ccccc3c2)CC1 [Example 85, Oxazol-2-yl-(1-quinolin-3-ylmethyl-piperidin-4-yl)-methanone] | 18 nM | 43 nM | 
CC(C)c1ccc(CN2CCC(C(=O)c3ncco3)CC2)cc1 [Example 86, [1-(4-Isopropyl-benzyl)-piperidin-4-yl]-oxazol-2-yl-methanone] | 110 nM | 170 nM | 
O=C(c1ncco1)C1CCN(Cc2ccc(Br)c(Br)c2)CC1 [Example 87, [1-(3,4-Dibromo-benzyl)-piperidin-4-yl]-oxazol-2-yl-methanone] | 2 nM | 2 nM | 
O=C(c1ncco1)C1CCN(Cc2ccc3ccccc3c2)CC1 [Example 88, (1-Naphthalen-2-ylmethyl-piperidin-4-yl)-oxazol-2-yl-methanone] | 4 nM | 9 nM | 
O=C(c1ncco1)C1CCN(Cc2ccccc2)CC1 [Example 89, (1-Benzyl-piperidin-4-yl)-oxazol-2-yl-methanone] | 3000 nM | 7000 nM | 
CC(c1cccc(C(F)(F)F)c1)N1CCC(C(=O)c2ncco2)CC1 (stereo not drawn) [Example 91, Oxazol-2-yl-{1-[1-(3-trifluoromethyl-phenyl)-ethyl]-piperidin-4-yl}-methanone] | 782 nM | 370 nM | 
O=C(CCCCCCc1ccccc1)c1ncc(-c2ccccn2)o1 [OL-135] |  |  | inhibition of FAAH [5]: potent inhibitor of FAAH; analgesic activity in tail emersion test of thermal nociception [6]: analgesic activity; analgesic activity in hot plate test of thermal nociception [7]: analgesic activity

Source: patent US20100292266A1, “Oxazolyl Piperidine Modulators of Fatty Acid Amide Hydrolase” (priority 2006, published 2010)
